The values below come from patent US9994515B2, “Aryl naphthyl methanone oxime(s) and process for preparation thereof” (Council of Scientific & Industrial Research, priority 2013, dated 2018).

Counter-ions that a name gives are not always drawn.

Type in all cases: cell-based
In test [1] the test system is K562. In words: MTT cytotoxicity assay in K562 cells. Particulars: Homo sapiens, K562, 48 h, Table 3; MTT, 48 h, 10 point dose response; read-out: IC 50 K562.
In test [2] the test system is K562. In words: Differentiation of K562 cells (Wright-Giemsa staining). The settings on record: 0.5 μM; 3, 6 and 12 days. From the text: In order to clarify whether the inhibitory effects of Centans on the growth and cell cycle of K562 cells was followed by differentiation, Centans treated cells was stained with Wright-Giemsa stain. […] This differentiation was much more pronounced at 12d, where mature megakaryocytes were visible (FIG. 4A). Confirmation of Centans-mediated megakaryocytic differentiation was attained through measurement of expression of relevant cell differentiation markers by quantitative real time PCR. mRNA expression levels of cluster of differentiation 10 (CD10) (transiently present during B-cell maturation at early-B and pre-B lymphoblastic stages and related to megakaryocytic differentiation), CD36 (erythroid differentiation lineage), GATA2 (Over expression of GATA-2 inhibits erythroid and promotes megakaryocyte differentiation) and CD61 (megakaryocytic differentiation marker) was measured.
FIG. 4. CentANS induces Differentiation in K562 cells. […] (B) Expression of differentiation Markers—K562 cells were treated with vehicle; V (DMSO) or centANS and mRNA from these cells were isolated and reverse transcribed. cDNA was used to measure the expression CD10, GATA2, CD61, (megakaryocytic lineage markers) and CD36 (Erythroid lineage marker) by Quantitative Real time PCR, GAPDH was used as control. […]

The test system of another test is HL-60. In words: Differentiation of HL-60 cells (Wright-Giemsa staining, NBT reduction). The settings on record: 1 μM; 3, 6 and 12 days. The method, then: Differentiation potential of Centans on HL-60 cells was evaluated by the effect of this compound on Nuclear/cytosolic ratio and change in nuclear morphology, which are reliable markers of differentiation. For this, HL60 cell treated with Centans were cyto-spinned on microscope slides and stained with Wright-Giemsa and micro-photographed. […] This was further confirmed by nitro blue tetrazolium (NBT) reduction assay in HL-60 cells (NBT reduction is a hallmark of monocyte activity). FIG. 5A (lower panel) depicts time-dependent reduction of NBT by Centans-treated cells.
FIG. 5. Centans induces granulocytic/monocytic differentiation in HL-60 model of AML. A. HL60 cells treated with Centans (1 μM) for 3, 6 and 12 days were cytospinned on Microscope slides and stained with Giemsa and May Grünwald solutions (upper panel) or NBT (lower panel), slides were microphotographed and used to detect change in nuclear morphology and NBT reduction. B. HL60 cells were treated with Vehicle (DMSO) or Centans as indicated in image, mRNA from these samples were isolated and reverse transcribed and these samples were used to measure the expression of CD11b GCSFR, and C/EBPα/β& ϵ by Quantitative real-time PCR, using GAPDH as normalizing control. Data presented as mean f SEM from three independent experiments; *P<0.05, **P<0.01, and ***P<0.001 compared to vehicle treated control.

A further test concerns the target T1, Her2 (Homo sapiens, UniProt P04626).
T1 construct: Serum starved (A,C) MCF-7 cells and (B,D) MDA-MB231 cells were pre-incubated for 1 h; endogenous in cells; host or cells: MCF-7
Kind of test: Her2 phosphorylation ELISA in MCF-7 cells. The protocol:
Since EGFR and Her2 play major roles in breast cancer development and metastatis, the effect of Centans on regulation of these two factors was evaluated in MCF-7 and MDA-MB-231 cells by enzyme-linked immunosorbant assays (ELISA). As depicted in FIGS. 7. A and B, EGF dependent EGFR phosphorylation at Tyr^1068 was strongly attenuated by Centans in both MCF-7 and MDA-MB-231 cells and this effect was much stronger than that of Gefitinib (marketted EGFR inhibitor/anti-cancer drug).
FIG. 7. Inhibition of EGFR and Her2 phosphorylation by Centans in MCF-7 and MDA-MB231 cells. Serum starved (A,C) MCF-7 cells and (B,D) MDA-MB231 cells were pre-incubated for 1 h with the indicated concentrations of Centans prior to stimulation with EGF for 15 min and EGFR (A and B) or Her2 (C and D) phosphorylation were measured by ELISA. Gef=Gefitinib. All doses are in μM.
For orientation: In an ELISA, binding on a coated surface is turned into a signal by an enzyme label.

T1 sequence (P04626 23-1255): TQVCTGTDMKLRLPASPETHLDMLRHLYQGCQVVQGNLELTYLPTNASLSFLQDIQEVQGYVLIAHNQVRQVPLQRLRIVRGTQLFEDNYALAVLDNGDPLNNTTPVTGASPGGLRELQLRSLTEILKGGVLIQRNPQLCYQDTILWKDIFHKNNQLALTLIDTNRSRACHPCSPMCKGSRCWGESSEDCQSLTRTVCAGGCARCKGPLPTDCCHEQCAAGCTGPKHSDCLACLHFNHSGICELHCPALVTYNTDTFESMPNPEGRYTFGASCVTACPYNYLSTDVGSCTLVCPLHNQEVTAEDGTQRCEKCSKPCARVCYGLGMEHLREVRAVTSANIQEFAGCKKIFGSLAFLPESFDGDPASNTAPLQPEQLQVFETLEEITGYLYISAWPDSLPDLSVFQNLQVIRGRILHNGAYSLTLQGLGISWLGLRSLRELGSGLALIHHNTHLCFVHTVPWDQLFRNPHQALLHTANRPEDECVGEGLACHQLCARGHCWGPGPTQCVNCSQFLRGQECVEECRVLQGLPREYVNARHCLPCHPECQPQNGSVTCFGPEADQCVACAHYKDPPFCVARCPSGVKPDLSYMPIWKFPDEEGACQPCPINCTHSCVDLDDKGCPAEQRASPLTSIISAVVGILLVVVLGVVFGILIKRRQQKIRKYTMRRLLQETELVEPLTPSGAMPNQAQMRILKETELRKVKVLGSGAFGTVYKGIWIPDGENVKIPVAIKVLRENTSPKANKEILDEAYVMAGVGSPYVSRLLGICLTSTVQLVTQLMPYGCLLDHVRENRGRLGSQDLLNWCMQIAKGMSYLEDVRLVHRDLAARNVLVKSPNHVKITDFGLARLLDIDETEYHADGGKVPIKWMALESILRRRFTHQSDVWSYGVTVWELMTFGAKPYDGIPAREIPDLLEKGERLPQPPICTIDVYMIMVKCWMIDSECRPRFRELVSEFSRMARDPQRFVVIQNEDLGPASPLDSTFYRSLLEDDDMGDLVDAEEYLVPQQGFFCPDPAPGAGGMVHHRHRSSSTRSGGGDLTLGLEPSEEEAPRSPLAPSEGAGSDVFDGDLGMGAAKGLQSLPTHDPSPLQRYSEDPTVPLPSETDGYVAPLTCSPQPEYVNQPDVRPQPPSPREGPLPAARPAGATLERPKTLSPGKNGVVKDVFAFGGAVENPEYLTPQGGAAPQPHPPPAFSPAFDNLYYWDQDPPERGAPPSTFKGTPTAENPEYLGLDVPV

Turning to `CCN(CC)CCO/N=C(/c1ccc(SC)cc1)c1cccc2ccccc12` [Compound 5d, (4-(methylthio)phenyl)(naphthalen-1-yl)methanone O-2-(diethylamino)ethyl oxime oxalate], the IC50 with K562 [1] amounted to 3.61 µM. Also, the “differentiation of K562 cells” value in the test on K562 [2] is listed as “capable of inducing differentiation in K562 cells in a dose-dependent manner”. Moreover, in the test with HL-60, the “differentiation of HL-60 cells” value was “morphological features of differentiation, such as condensation of nuclei and protrusion of cytoplasm, were clearly evident”. Further, the HER2 phosphorylation result at Her2 is on record as “significantly reduced HER2 phosphorylation in a dose-dependent manner”.
